Assays:
Details in all cases: incubation time: 72 h
BT-474 [1] = assay: normalised response (% of control), CellTox Green; higher = less cell death (100 = DMSO, 0 = benzethonium chloride kill control)
Method in brief: (§1)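 Breast cancer cell lines in 20 µl suspension were added to 384-well plates containing compound at 5 concentrations, spaced in 10-fold steps across a 10,000-fold range chosen for each compound, and incubated for 72 h. CellTox Green fluorescence was read at 485/520 nm, followed by CellTiter-Glo luminescence after 10 min at room temperature. Signals on each plate were normalised so that 0.1 % DMSO equals 100 and a positive kill control equals 0. Every value in the table is the normalised signal at one concentration of the series.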

BT-549 [2] = assay: as above
Method in brief: as §1

CAL-120 [3] = assay: as above
Method in brief: as §1

CAL-148 [4] = assay: as above
Method in brief: as §1

CAL-51 [5] = assay: as above
Method in brief: as §1

CAL-85-1 [6] = assay: as above
Method in brief: as §1

DU-4475 [7] = assay: as above
Method in brief: as §1

HCC1143 [8] = assay: as above
Method in brief: as §1

HCC1599 [9] = assay: as above
Method in brief: as §1

HCC1937 [10] = assay: as above
Method in brief: as §1

HDQ-P1 [11] = assay: as above
Method in brief: as §1

Hs578T [12] = assay: as above
Method in brief: as §1

MCF-10A [13] = assay: as above
Method in brief: as §1

MDA-MB-231 [14] = assay: as above
Method in brief: as §1

MDA-MB-436 [15] = assay: as above
Method in brief: as §1

MDA-MB-453 [16] = assay: as above
Method in brief: as §1

MDA-MB-468 [17] = assay: as above
Method in brief: as §1

MFM-223 [18] = assay: as above
Method in brief: as §1

BT-474 [19] = assay: normalised response (% of control), CellTiter-Glo; higher = more viable cells (100 = DMSO, 0 = benzethonium chloride kill control)
Method in brief: as §1

BT-549 [20] = assay: as above
Method in brief: as §1

CAL-120 [21] = assay: as above
Method in brief: as §1

CAL-148 [22] = assay: as above
Method in brief: as §1

CAL-51 [23] = assay: as above
Method in brief: as §1

CAL-85-1 [24] = assay: as above
Method in brief: as §1

DU-4475 [25] = assay: as above
Method in brief: as §1

HCC1143 [26] = assay: as above
Method in brief: as §1

HCC1599 [27] = assay: as above
Method in brief: as §1

HCC1937 [28] = assay: as above
Method in brief: as §1

HDQ-P1 [29] = assay: as above
Method in brief: as §1

Hs578T [30] = assay: as above
Method in brief: as §1

MCF-10A [31] = assay: as above
Method in brief: as §1

MDA-MB-231 [32] = assay: as above
Method in brief: as §1

MDA-MB-436 [33] = assay: as above
Method in brief: as §1

MDA-MB-453 [34] = assay: as above
Method in brief: as §1

MDA-MB-468 [35] = assay: as above
Method in brief: as §1

MFM-223 [36] = assay: as above
Method in brief: as §1

SK-BR-3 [37] = assay: as above
Method in brief: as §1

BT-474 [38] = assay: normalised response (% of control), CellTiter-Glo; higher = more viable cells (100 = DMSO, 0 = benzethonium chloride kill control); remark: listed apart in the source
Experimental: (§2)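 DSRT, 72 h incubation, CellTox Green / CellTiter-Glo readout. Signal is normalised to DMSO and benzethonium chloride controls. Value is the normalised response at dose 3.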

BT-549 [39] = assay: as above; remark: listed apart in the source
Experimental: as §2

CAL-120 [40] = assay: as above; remark: listed apart in the source
Experimental: as §2

CAL-148 [41] = assay: as above; remark: listed apart in the source
Experimental: as §2

CAL-85-1 [42] = assay: as above; remark: listed apart in the source
Experimental: as §2

DU-4475 [43] = assay: as above; remark: listed apart in the source
Experimental: as §2

HCC1143 [44] = assay: as above; remark: listed apart in the source
Experimental: as §2

HCC1599 [45] = assay: as above; remark: listed apart in the source
Experimental: as §2

HCC1937 [46] = assay: as above; remark: listed apart in the source
Experimental: as §2

HDQ-P1 [47] = assay: as above; remark: listed apart in the source
Experimental: as §2

MCF-10A [48] = assay: as above; remark: listed apart in the source
Experimental: as §2

MDA-MB-231 [49] = assay: as above; remark: listed apart in the source
Experimental: as §2

MDA-MB-436 [50] = assay: as above; remark: listed apart in the source
Experimental: as §2

MDA-MB-453 [51] = assay: as above; remark: listed apart in the source
Experimental: as §2

SK-BR-3 [52] = assay: as above; remark: listed apart in the source
Experimental: as §2

| SMILES | normalised response (BT-474 [1]) [%] | normalised response (BT-549 [2]) [%] | normalised response (CAL-120 [3]) [%] | normalised response (CAL-148 [4]) [%] | normalised response (CAL-51 [5]) [%] | normalised response (CAL-85-1 [6]) [%] | normalised response (DU-4475 [7]) [%] | normalised response (HCC1143 [8]) [%] | normalised response (HCC1599 [9]) [%] | normalised response (HCC1937 [10]) [%] | normalised response (HDQ-P1 [11]) [%] | normalised response (Hs578T [12]) [%] | normalised response (MCF-10A [13]) [%] | normalised response (MDA-MB-231 [14]) [%] | normalised response (MDA-MB-436 [15]) [%] | normalised response (MDA-MB-453 [16]) [%] | normalised response (MDA-MB-468 [17]) [%] | normalised response (MFM-223 [18]) [%] | normalised response (BT-474 [19]) [%] | normalised response (BT-549 [20]) [%] | other results |
| --- | --- | --- | --- | --- | --- | --- | --- | --- | --- | --- | --- | --- | --- | --- | --- | --- | --- | --- | --- | --- | --- |
| Cc1cccc(-c2nn3c(c2-c2ccnc4ccc(C(N)=O)cc24)CCC3)n1 [Galunisertib] (100 nM) | 102 | 121 | 101 | 108 | 112 | 102 | 107 | 112 | 109 | 93.8 | 70.6 | 87.6 | 59.8 | 120 | 105 | 114 | 170 | 98.5 | 104 | 94.3 | normalised response (CAL-120 [21]): 104%; normalised response (CAL-148 [22]): 101%; normalised response (CAL-51 [23]): 88.5%; normalised response (CAL-85-1 [24]): 104%; normalised response (DU-4475 [25]): 104%; normalised response (HCC1143 [26]): 109%; normalised response (HCC1599 [27]): 109%; normalised response (HCC1937 [28]): 104%; normalised response (HDQ-P1 [29]): 101%; normalised response (Hs578T [30]): 91.6%; normalised response (MCF-10A [31]): 109%; normalised response (MDA-MB-231 [32]): 108%; normalised response (MDA-MB-436 [33]): 110%; normalised response (MDA-MB-453 [34]): 105%; normalised response (MDA-MB-468 [35]): 107%; normalised response (MFM-223 [36]): 107%; normalised response (SK-BR-3 [37]): 105% |
| CS(=O)(=O)N1CCN(Cc2cc3nc(-c4cccc5[nH]ncc45)nc(N4CCOCC4)c3s2)CC1 [Pictilisib] (100 nM) | 98.8 | 101 | 102 | 92.1 | 103 | 107 | 101 | 110 | 108 |  | 107 | 109 | 106 | 92.3 | 107 | 104 | 143 | 105 |  |  | normalised response (BT-474 [38]): 86.9%; normalised response (BT-549 [39]): 86.7%; normalised response (CAL-120 [40]): 89.6%; normalised response (CAL-148 [41]): 98.4%; normalised response (CAL-85-1 [42]): 106%; normalised response (DU-4475 [43]): 92%; normalised response (HCC1143 [44]): 91.7%; normalised response (HCC1599 [45]): 93.6%; normalised response (HCC1937 [46]): 94.7%; normalised response (HDQ-P1 [47]): 82.4%; normalised response (MCF-10A [48]): 84.8%; normalised response (MDA-MB-231 [49]): 86.2%; normalised response (MDA-MB-436 [50]): 92%; normalised response (MDA-MB-453 [51]): 88.5%; normalised response (SK-BR-3 [52]): 74.1% |
| O=C(NC[C@H](O)CO)c1ccncc1Nc1ccc(I)cc1F [Pimasertib] (1000 nM) | 78.8 | 142 | 83.4 | 105 | 93.7 | 67.4 | 62.6 | 89.5 | 111 | 109 | 77.2 | 103 | 106 | 63.2 | 56.7 | 107 | 150 | 100 | 69.8 | 96.1 | normalised response (CAL-120 [21]): 73.6%; normalised response (CAL-148 [22]): 83.5%; normalised response (CAL-51 [23]): 73%; normalised response (CAL-85-1 [24]): 61.9%; normalised response (DU-4475 [25]): 0.43%; normalised response (HCC1143 [26]): 84.2%; normalised response (HCC1599 [27]): 91.6%; normalised response (HCC1937 [28]): 84.3%; normalised response (HDQ-P1 [29]): 62.1%; normalised response (Hs578T [30]): 86.2%; normalised response (MCF-10A [31]): 31.2%; normalised response (MDA-MB-231 [32]): 72.1%; normalised response (MDA-MB-436 [33]): 95.5%; normalised response (MDA-MB-453 [34]): 105%; normalised response (MDA-MB-468 [35]): 87.4%; normalised response (MFM-223 [36]): 94%; normalised response (SK-BR-3 [37]): 86.1% |
| Cn1cc(CNCC2CCN(c3ncc(C(=O)NO)cn3)CC2)c2ccccc21 [Quisinostat] (100 nM) | 45.6 | 92.3 | 34.5 | 23.7 | 58.5 | -5.42 | 82.1 | 86.2 | 86.8 | 80 | -19.4 | 38.8 | 97.8 | 29.6 | 87.5 | 89 | 43.3 | 72.8 | 25.3 | 46.1 | normalised response (CAL-120 [21]): 44.5%; normalised response (CAL-148 [22]): 8.89%; normalised response (CAL-51 [23]): 40.5%; normalised response (CAL-85-1 [24]): 29.5%; normalised response (DU-4475 [25]): 23.2%; normalised response (HCC1143 [26]): 25.4%; normalised response (HCC1599 [27]): 42.1%; normalised response (HCC1937 [28]): 64.7%; normalised response (HDQ-P1 [29]): 58.4%; normalised response (Hs578T [30]): 37.2%; normalised response (MCF-10A [31]): 51.6%; normalised response (MDA-MB-231 [32]): 30%; normalised response (MDA-MB-436 [33]): 55.3%; normalised response (MDA-MB-453 [34]): 2.02%; normalised response (MDA-MB-468 [35]): 34.5%; normalised response (MFM-223 [36]): 52.5%; normalised response (SK-BR-3 [37]): 14.9% |

Reference: the supplement of paper PMC4862054
